{"source": "patent US10828301B2", "about": "“2,4-pyrimidinediamine compounds and their uses” (Rigel Pharmaceuticals, Inc, priority 2002, dated 2020)", "key": {"[1]": {"test_system": "proteins downstream of Syk kinase and LYN kinase in activated CHMC cells", "assay": "Phosphorylation of proteins in the FcεRI signal transduction cascade in activated CHMC cells", "assay_type": "cell-based, human", "conditions": "FIG. 10"}, "Syk kinase": {"target": "Syk kinase (Homo sapiens (Human), UniProt P43405)", "assay": "Isolated Syk kinase biochemical assay (phosphorylation of a peptide or endogenous substrate)", "conditions": "increasing concentrations, FIG. 8"}, "[2]": {"test_system": "FcεR1-mediated degranulation in mast cells", "assay": "FcεRI-mediated (anti-IgE induced) degranulation assay in mast cells", "assay_type": "cell-based", "conditions": "Mast cell; range stated for the whole listed group of compounds; read-out: inhibition of FcεR1-mediated degranulation in mast cells (IC50s)"}, "CHMC cells": {"test_system": "CHMC cells", "assay": "anti-IgE-induced calcium ion flux in CHMC cells", "assay_type": "cell-based, human", "conditions": "10 μM compound"}, "[3]": {"assay_type": "in vivo", "conditions": "14-day repeat-dose; intranasal in rabbits and primates, oral in mice and rats"}}, "data": [{"smiles": "Oc1cccc(Nc2ncc(F)c(Nc3cccc(O)c3)n2)c1", "note": "[Compound R921218, N2,N4-Bis(3-hydroxyphenyl)-5-fluoro-2,4-pyrimidinediamine]", "values": [{"measurement": "phosphorylation of proteins downstream of Syk kinase in the FcεRI signal transduction cascade", "setting": "[1]", "value": "inhibit phosphorylation"}, {"measurement": "Syk kinase phosphorylation of an endogenous substrate (LAT) and a peptide substrate", "setting": "Syk kinase", "value": "dose responsive inhibition"}, {"measurement": "IC50", "setting": "[2]", "value": "30 to 1650", "unit": "nM"}, {"measurement": "anti-IgE-induced Ca2+ flux", "setting": "CHMC cells", "value": "inhibited anti-IgE-induced Ca^2+ flux"}, {"measurement": "dose limiting toxicity", "setting": "[3]", "value": "no dose limiting toxicity"}]}]}
